Several values for one entry are separate records, joined by “and”; a condition that tells them apart may be missing. Identical values can stand only once. Ends that are not written are not given here. * marks the point of attachment. Palmitoyl = CCCCCCCCCCCCCCCC(=O)*
Tests used:
[1] = pI stated in the formulation description; format: physicochemical; conditions: stated without method in formulation example 39
[2] = tested on: peripheral blood mononuclear lymphocytes of HLA-A2+ healthy person; assay: FIG. 2: induction of lymphocyte proliferation, 3H-TdR; format: cell-based, human
From the text: FIG. 2 indicated the effect of inducing the proliferation of lymphocytes.

enzyme-labeled antibody = assay: Potency/specific activity of stock solution or semifinished product, enzyme-linked plate; format: binding
From the text: Chromatography column AP5 20/275 POROS 50 R1 was used in the batch production. After peptide-resin was cleaved and preliminarily purified, the collected εPA44 sample was divided into 7 parts for high purification, and the effects and reproducibility for batch purification of εPA44 stock solution were furthered studied. […] The collected elution peak fractions of εPA44 were pooled and mixed homogenously, aliquots were removed for analysis. If the sample met the set standards, it was used as the stock solution and was stored at −20° C. until use. The output, yield and specific activity of the product were calculated based on the measured data.
The semifinished product to be tested was diluted to a concentration within the measurable range of the potency determination. An enzyme-linked plate( ? ) was coated, blocked, bound by enzyme-labeled antibody, and developed. The absorbance at 450 nm (A450 nm) was detected by an enzyme-labeling device, and compared to the reference of the product. The potency of εPA44 in the extract of the sample was determined, and the specific activity of the semifinished product ( ? ) was calculated.
The reference of the product was 10-fold diluted with 50% ethanol, and then was two-fold serially diluted. 100 μl dilutions were separately added to the wells on the 96-well enzyme-linket immunosorbent assay plate, each well was repeated in triplicate. Coating was carried out in refrigerator at 4° C. for 20-24 hours. The stock solution of εPA44 was diluted and coated similarly to the reference. 100 μl of 50% ethanol was added to negative control wells. After the coating was completed, 200 μl 1% calf serum was added to each well, and blocked in refrigerator at 4° C. for 2 hours. The enzyme-linket immunosorbent assay plate was dried in air, 80 μl enzyme-labeled antibody was added to each well and incubated at 37° C. for 40 minutes. The plate was washed with wash solution for 4 times and dried in air, then 50 μl of substrate solution A and 50 μl of substrate solution B were added to each well and developed at 37° C. for 15 minutes under protection from light. Then 50 μl of stop solution was added to each well. A450 nm values were detected on 550 type enzyme-linket immunosorbent assay detector. The median dilution times of the reference and the samples were calculated by program or linear regression method based on the median effect value of the reference of εPA44 (median maximum absorbance), and the potency of the test sample and the specific activity of the product were calculated according to the following formulas.

HBV-DNA transgenic mice = assay: HBV transgenic mice: cytokines of spleen lymphocytes, ELISA (Th1/Th2); format: in vivo; conditions: 10, 100, 1000 U/mouse s.c., day 30; spleen lymphocytes restimulated with 10 ng/ml for 3 days
Description: The levels of cytokines such as IFN-γ, IL-4, etc. in supernatant were measured by the ELISA method, and the activity of the test drug (CH3(CH2)14COKSSQYIKANSKFIGITEAAASIVSPFIPLLGGGDPRVRGLYFPA) (SEQ ID NO:5) for inducing the differentiation of T cells into Th1/Th2 type was analyzed. […] The expression frequency of IFN-γ secreting cells in peripheral blood lymphocytes was measured by the ELI-SPOT method in said supernatant. […] On the 10th, 20th and 30th day after the end of the three immunizations, bloods were removed, serum isolated, and the contents of HBsAg and HBV-DNA in the serum were separately measured by the ELISA method and quantitative PCR method.
Then supernatants were collected and the secretion levels of cytokines such as TNF-α, IFN-γ, IL-4, etc. in supernatants were measured by ELISA, and the activity of the test drug for inducing the conversion of Th1/Th2 type from T cells in subjects was analyzed.

[3] = Overall functional screening of tri-epitope molecules
From the text: The designed immunogens are synthesized by chemical synthesis methods. Firstly, the most probable structures according to the computer alignment and in theory are synthesized, and then functionally screened in vitro. The screening in vitro comprises: inducing the Th1 activation of peripheral blood mononuclear cells, inducing the HBV-specific CTL, inhibiting HBsAg and HBeAg on HepG2.2.1.5 cells with polypeptide antigen-specific CTL, etc. The designed structures are optimized, improved and synthesized in the next cycle bused on the results of functional tests in vitro. The structures selected out in the in vitro tests are further screened in in vivo tests, the screening comprising: inducing the Th1 activation in Balb/C mice, inhibiting virus replication in HBV transgenic mice, conducting acute toxicity tests in mice, etc. […] Among tri-epitope molecules of different epitope combinations, εPA44 achieves the best effect (see Table 4). The in vivo and in vitro tests indicate that the convalent modification by palmitic acid gives better effects among various chemical modifications.

K(Palmitoyl)SSQYIKANSKFIGITEAAAFLPSDFFPSVGGGDPRVRGLYFPA-OH [SEQ ID NO:1, CH3(CH2)14COKSSQYIKANSKFIGITEAAAFLPSDFFPSVGGGDPRVRGLYFPA]
pI [1]: 8.1
minimal effective dose ([2]; lymphocyte proliferation): 0.1 ng
range with dose-effect dependence ([2]; lymphocyte proliferation): 0.1 to 10 ng
induction of the proliferation of lymphocytes ([2]; with IL-2, γ-count after 3H-TdR): significantly induce the proliferation of lymphocytes
Specific activity (enzyme-labeled antibody; semifinished product): 13985.31 U/mg
potency of each vial (enzyme-labeled antibody; semifinished product): 4085.53 U
Specific activity (enzyme-labeled antibody; stock solution after reversed phase chromatography, batches 1-3 and x ± Sx, listed as εPA44): 10265.08 U/mg and 11689.76 ± 1503.57 U/mg and 13261.42 U/mg and 11542.77 U/mg
IL-4 secretion (HBV-DNA transgenic mice): no obvious dose-effect dependence relation
secretion of IFN-γ (HBV-DNA transgenic mice): stronger
effect among tri-epitope molecules of different epitope combinations [3]: best effect
